Assay results published in PMC10771296, “Plectasin: from evolution to truncation, expression, and better druggability” (Frontiers in Microbiology, 2023).
In brackets after ≈: the same amount, converted by molar mass. Like-named read-outs stand apart in the source and are kept apart here. Marks after values point to notes of the source that are not given here.

Experiments:
[1] = system: S. aureus CVCC546; conditions: ref Yang et al., 2019; cited from earlier work
Excerpt: (§1) Table 3 The MIC values of Ple-AB. | column: MIC (μg/mL) / Plectasin

[2] = system: S. aureus ATCC43300; conditions: ref Yang et al., 2019; cited from earlier work
Excerpt: as §1

[3] = system: E. coli O157; conditions: ref Yang et al., 2019; cited from earlier work
Excerpt: as §1

[4] = system: P. aeruginsoa CICC21630; conditions: ref Yang et al., 2019; cited from earlier work
Excerpt: as §1

[5] = system: S. aureus E48; conditions: ref Yang et al., 2019; cited from earlier work
Excerpt: as §1

[6] = system: S. aureus ATCC43300; conditions: ref Lei et al., 2018; cited from earlier work
Excerpt: Clinical applications require drugs that exhibi ...

[7] = system: mouse erythrocytes; conditions: 256 μg/mL; ref Zhang et al., 2011; Yang et al., 2019; cited from earlier work
Excerpt: The length, positive charge number, and amphiphilicity of the derived peptide Ple-AB were altered, reducing the peptide chain length from 40 to 36 amino acids, reducing the molecular weight from 4407.99 to 4006.66 Da, increasing the charge number from +1 to +3, and increasing the hydrophobicity from −0.695 to −0.469 (Table 1).

[8] = system: S. aureus ATCC43300; test: Time-kill curve (bacterial kinetics in vitro); type: cell-based, Staphylococcus aureus; conditions: 2× MIC, 1 × 10^5 CFU/mL, 37°C, 250 rpm, colony counting
Experimental: The bactericidal efficiency of Ple-AB was evaluated by plotting a time-kill curve ([Zheng et al., 2021]). Single colonies of the S. aureus ATCC43300 were picked for overnight activation, and 1% were transferred and incubated at 37°C until the logarithmic growth phase. […] Samples of 100 uL of bacteria were taken at 0, 0.5, 1, 2, 4, 6, 8, 10, 12, and 24 h, diluted, and coated to count the number of single colonies and plot the time-killing curve.

[9] = system: S. aureus ATCC43300; test: MIC/MBC, micro broth dilution; type: cell-based, Staphylococcus aureus; conditions: Staphylococcus aureus, ATCC43300; micro broth dilution, 1 × 10^5 CFU/mL, repeated thrice; read-out: MIC
Experimental: The minimum inhibitory concentration (MIC) of the peptides was assayed using the micro broth dilution method, which is an important indicator of the antibacterial activity of the AMPs ([Liu et al., 2021]). […] The MIC was defined as the lowest concentration of ones at which no visible bacterial growth was observed. All the assays were repeated thrice.

## CC[C@H](C)[C@@H]1NC(=O)[C@H](CO)NC(=O)[C@H](CCCCN)NC(=O)[C@@H]2CSSC[C@@H](C(=O)N[C@@H](Cc3ccc(O)cc3)C(=O)O)NC(=O)[C@H](CCCCN)NC(=O)[C@@H]3CSSC[C@H](NC(=O)[C@H](CCC(N)=O)NC(=O)[C@H](CCSC)NC(=O)[C@H](CC(=O)O)NC(=O)[C@H](CC(=O)O)NC(=O)[C@H](CCC(=O)O)NC(=O)[C@H](CC(=O)O)NC(=O)[C@H](Cc4c[nH]c5ccccc45)NC(=O)[C@@H]4CCCN4C(=O)CNC(=O)[C@H](CC(N)=O)NC(=O)[C@@H](NC(=O)CNC(=O)[C@H](Cc4ccccc4)NC(=O)CN)CSSC[C@H](NC(=O)[C@H](Cc4ccc(O)cc4)NC(=O)CNC(=O)CNC(=O)[C@H](CCCCN)NC(=O)[C@H](Cc4ccc(O)cc4)NC(=O)CNC(=O)[C@H](CCCCN)NC1=O)C(=O)N[C@@H](C)C(=O)N[C@@H](CCCCN)C(=O)NCC(=O)NCC(=O)N[C@@H](Cc1ccccc1)C(=O)N[C@@H](C(C)C)C(=O)N3)C(=O)N[C@@H](Cc1c[nH]cn1)C(=O)N[C@@H](CC(N)=O)C(=O)N[C@@H](Cc1c[nH]cn1)C(=O)N2 [Plectasin]
[1]
  MIC: 16^a μg/mL
[2]
  MIC: 4^a μg/mL
[3]
  MIC: >128 ^a μg/mL
[4]
  MIC: >128 ^a μg/mL
[5]
  MIC: 4^a μg/mL
[6]
  Time of co-incubation with simulated intestinal fluid after which activity is lost: 15 to 30 min
[7]
  Hemolytic activity: 68%

## CN[C@H](CC(C)C)C(=O)N[C@H]1C(=O)N[C@@H](CC(N)=O)C(=O)N[C@H]2C(=O)N[C@H]3C(=O)N[C@H](C(=O)N[C@H](C(=O)O)c4cc(O)cc(O)c4-c4cc3ccc4O)[C@H](O)c3ccc(c(Cl)c3)Oc3cc2cc(c3O[C@@H]2O[C@H](CO)[C@@H](O)[C@H](O)[C@H]2O[C@H]2C[C@](C)(N)[C@H](O)[C@H](C)O2)Oc2ccc(cc2Cl)[C@H]1O [vancomycin, reference compound]
[8]
  Time to kill all the strains: 6 h
[9]
  MIC: 1 µg/mL (≈ 0.69 µM)
